From patent US5945329A, “Customized proteases” (Carlsberg A/S, priority 1997, dated 1999)
Positions count from the first letter of the chain named.

Tests used:
[1] = target: T1, yeast carboxypeptidase Y (CPD-Y), wild type (SEQ ID NO:32) (Saccharomyces cerevisiae, UniProt P00729); experiment: Aminolysis of ester/peptide substrates; KN(app) of nucleophile; type: biochemical; settings: for Kn,app (H-Val-NH2 as nucleophile): Table VI, substance of the line is the substrate (leaving group varied); for Kn,app: Table V, FA-Ala-OBzl as substrate
T1 construct: purchased Carlbiotech, Copenhagen, Denmark
T1 sequence (P00729 112-532): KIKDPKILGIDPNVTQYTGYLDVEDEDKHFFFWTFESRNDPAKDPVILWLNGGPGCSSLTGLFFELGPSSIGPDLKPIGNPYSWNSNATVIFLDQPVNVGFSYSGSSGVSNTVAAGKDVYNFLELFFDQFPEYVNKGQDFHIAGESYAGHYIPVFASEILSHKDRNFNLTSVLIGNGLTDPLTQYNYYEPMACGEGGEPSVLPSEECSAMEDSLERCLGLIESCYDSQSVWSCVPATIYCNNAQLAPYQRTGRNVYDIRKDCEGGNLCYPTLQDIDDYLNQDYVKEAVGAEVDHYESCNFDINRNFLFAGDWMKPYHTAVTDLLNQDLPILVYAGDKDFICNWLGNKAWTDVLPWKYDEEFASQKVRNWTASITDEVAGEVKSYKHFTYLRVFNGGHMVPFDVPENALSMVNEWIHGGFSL
Method: (§1) Aminolysis reactions were carried out in the following way. The nucleophile was dissolved in 50 mM Hepes, 5 mM EDTA and pH was adjusted to 7.5. Five (5) μl of substrate (8 mM FA-Ala-OBzl in methanol) was added to 190 μl nucleophile solution followed by 5 μl enzyme, resulting in a substrate concentration of 0.2 mM. For reactions carried out at pH 9.5, Hepes was replaced with Ches. During the reaction, 20 μl aliquots were removed from the reaction mixture and added to 50 μl 1% trifluoroacetic acid to quench the reaction. The reactant composition was determined by HPLC using a Waters HPLC equipped with a C-18 Waters Novapac 4μ reverse phase column and various gradients of acetonitrile in 0.1% trifluoroacetic acid. The separation was monitored at 302 nm allowing the direct quantification of the products from the integrated peak areas. The composition of the reaction mixture was determined at least twice during the reaction, the first time when 20-50% (preferably 35%) of the ester substrate had been consumed in the reaction and the second time when 50-90% (preferably 80%) of the substrate had been consumed. The products were collected and identified by amino acid analysis after acid hydrolysis using a Pharmacia Alpha Plus analyzer.
(§2) Further identification was obtained by co-chromatography of authentic standard compounds. The fraction of aminolysis (fa) was expressed as the ratio between the formed aminolysis product and the sum of all products being formed, i.e., unconsumed substrate was disregarded in the calculations. The KN(app), representing the nucleophile concentration at which fa is half the maximum value (a measure for the dissociation constant of the nucleophile), and famax (the highest possible fa obtained at saturation of the enzyme with nucleophile) were determined by fitting the values of fa obtained at a minimum of seven concentrations of nucleophile to a saturation. The value of fa obtained at the highest possible nucleophile concentration is designated fasat.
(§3) Aminolysis reactions were carried out in the following way. The nucleophile was dissolved in 50 mM HEPES, 5 mM EDTA and pH was adjusted to 7.5, 5 μl substrate (8 mM FA-Ala-OBzl or FA-Ala-Xaa-OH in methanol) was added to 190 μl nucleophile solution followed by 5 μl enzyme diluted in buffer to the appropriate concentration, resulting in a substrate concentration of 0.2 mM. During the reaction, 20 μl aliquots were removed from the reaction mixture and added to 50 μl 1% trifluoroacetic acid to quench the reaction. The reactant composition was determined by HPLC using a Waters HPLC equipped with a C-18 Waters Novapac 4μ reverse phase column and various gradients of acetonitrile in 0.1% trifluoroacetic acid. The separation was monitored at 302 nm allowing the direct quantification of the products from the integrated peak areas. The products were collected and identified by amino acid analysis after acid hydrolysis (Pharmacia Alpha Plus analyzer) and by co-chromatography of authentic standards. The fraction of aminolysis (fa) was expressed as the ratio between the formed aminolysis product and the sum of all products being formed, i.e. unconsumed substrate was disregarded in the calculations. The KN,app (a measure for the dissociation constant of the nucleophile) and famax (the highest possible fa obtained at saturation with nucleophile were determined by fitting the obtained fa values to the equation fa=famax /(1+KN,app /N).

[2] = target: T2, carboxypeptidase Y (CPD-Y) variant E145A (Glu145 replaced by alanine) (Saccharomyces cerevisiae, UniProt P00729, E256A); experiment: Aminolysis; KN(app) of nucleophile; type: biochemical, yeast; settings: pH 7.5; for Kn,app (H-Val-NH2 as nucleophile): Table VI, substance of the line is the substrate (leaving group varied); for Kn,app: Table V, amino acid nucleophile, FA-Ala-OBzl as substrate
T2 construct: made in house; host or cells: S. cerevisiae W2579 (secreted)
T2 sequence (P00729 112-532 E256A): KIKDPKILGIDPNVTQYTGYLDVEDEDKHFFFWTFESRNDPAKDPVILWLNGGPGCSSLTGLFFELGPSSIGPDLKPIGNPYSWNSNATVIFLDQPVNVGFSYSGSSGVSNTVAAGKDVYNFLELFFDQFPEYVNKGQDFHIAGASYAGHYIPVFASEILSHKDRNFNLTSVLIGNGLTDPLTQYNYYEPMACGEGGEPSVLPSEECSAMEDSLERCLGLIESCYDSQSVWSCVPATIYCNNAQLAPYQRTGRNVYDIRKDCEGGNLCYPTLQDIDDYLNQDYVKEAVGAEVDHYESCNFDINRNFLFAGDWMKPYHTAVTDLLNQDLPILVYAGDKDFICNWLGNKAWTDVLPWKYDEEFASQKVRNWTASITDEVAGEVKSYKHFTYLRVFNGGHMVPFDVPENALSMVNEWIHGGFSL
Method: as §1, §2, §3

[3] = target: T3, carboxypeptidase Y (CPD-Y) variant N51S (Asn51 replaced with serine) (Saccharomyces cerevisiae, UniProt P00729, N162S); experiment: Aminolysis; KN(app) of nucleophile; type: biochemical, yeast; settings: Table VI; substance of the line is the substrate (leaving group varied), pH 7.5
T3 construct: made in house; host or cells: S. cerevisiae W2579 (secreted)
T3 sequence (P00729 112-532 N162S): T1 sequence (P00729 112-532) with N51S
Method: as §1, §2, §3

[4] = target: T4, carboxypeptidase Y (CPD-Y) variant N51Q (Asn51 replaced with glutamine) (Saccharomyces cerevisiae, UniProt P00729, N162Q); experiment: Aminolysis; KN(app) of nucleophile; type: biochemical, yeast; settings: for Kn,app (H-Val-NH2 as nucleophile): Table VI, substance of the line is the substrate (leaving group varied); for Kn,app (H-Val-NH2 as nucleophile) / Kn,app: pH 7.5; for KN(app): Table III (unit as in Tables I, II), ester substrate; for KN(app) / Kn,app: amino acid nucleophile; for Kn,app: Table V, FA-Ala-OBzl as substrate
T4 construct: made in house; host or cells: S. cerevisiae W2579 (secreted)
T4 sequence (P00729 112-532 N162Q): T1 sequence (P00729 112-532) with N51Q
Method: as §1, §2, §3

[5] = target: T5, carboxypeptidase Y (CPD-Y) variant E65A (Glu65 replaced by alanine) (Saccharomyces cerevisiae, UniProt P00729, E176A); experiment: Aminolysis; KN(app) of nucleophile; type: biochemical, yeast; settings: pH 7.5; for Kn,app (H-Val-NH2 as nucleophile): Table VI, substance of the line is the substrate (leaving group varied)
T5 construct: made in house; host or cells: S. cerevisiae W2579 (secreted)
T5 sequence (P00729 112-532 E176A): as the sequence (P00729 112-532 E256A) above, with E65A, A145E counted along it
Method: as §1, §2, §3

[6] = target: T1, yeast carboxypeptidase Y (CPD-Y), wild type (SEQ ID NO:32); experiment: Hydrolysis of FA-Phe-Val-OH; type: biochemical
[7] = Table II, amino acid nucleophile, substrate FA-Ala-OBzl, pH 7.5
[8] = Table III (unit as in Tables I, II), amino acid nucleophile, ester substrate

## carboxypeptidase Y mutant N51S (enzyme)
FA-Phe-Val-OH
  kcat/KM of hydrolysis: 800000 M⁻¹ s⁻¹
FA-Ala-Val-OH
  famax of transpeptidation (nucleophile H-Val-NH2): 0.13
FA-Ala-Ala-OH
  famax of transpeptidation (nucleophile H-Val-NH2): 0.88

## carboxypeptidase Y mutant 178Ser (enzyme)
CBZ-Gly-Leu-OH
  estimated CPD-Y activity relative to wild type transformants (fold of wild type): 1.1
CBZ-Trp-Leu-OH
  estimated CPD-Y activity relative to wild type transformants (fold of wild type): 1.2
CBZ-His-Leu-OH
  estimated CPD-Y activity relative to wild type transformants (fold of wild type): 1.1
CBZ-Pro-Leu-OH
  estimated CPD-Y activity relative to wild type transformants (fold of wild type): 1.8
CBZ-Lys-Leu-OH
  kcat/Km of hydrolysis: 61700 M⁻¹ s⁻¹
CBZ-Ser-Leu-OH
  kcat/Km of hydrolysis: 100000 M⁻¹ s⁻¹
CBZ-Phe-Leu-OH
  kcat/Km of hydrolysis: 3.33e+06 M⁻¹ s⁻¹
CBZ-Ala-Leu-OH
  kcat/Km of hydrolysis: 80000 M⁻¹ s⁻¹
CBZ-Glu-Leu-OH
  kcat/Km of hydrolysis: 12000 M⁻¹ s⁻¹

## C[C@H](NC(=O)C=Cc1ccco1)C(=O)OCc1ccccc1 [FA--Ala--OBzl, FA-Ala-OBzl]
[1]; pH 7.5
  Kn,app (H-Val-NH2 as nucleophile): 1.7 ± 0.1 mM
[2]
  Kn,app (H-Val-NH2 as nucleophile): 3.4 ± 0.4 mM
[3]
  Kn,app (H-Val-NH2 as nucleophile): 1.6 ± 0.1 mM
[4]
  Kn,app (H-Val-NH2 as nucleophile): 3.1 ± 0.4 mM
[5]
  Kn,app (H-Val-NH2 as nucleophile): 4.2 ± 0.01 mM

## CC(C)[C@H](NC(=O)[C@H](C)NC(=O)C=Cc1ccco1)C(=O)O [FA--Ala--Val--OH, FA-Ala-Val-OH]
[1]; pH 7.5
  Kn,app (H-Val-NH2 as nucleophile): 1.5 ± 0.1 mM
[2]
  Kn,app (H-Val-NH2 as nucleophile): 4.2 ± 0.2 mM
[3]
  Kn,app (H-Val-NH2 as nucleophile): 1.8 ± 0.1 mM
[4]
  Kn,app (H-Val-NH2 as nucleophile): 2.4 ± 0.1 mM
[5]
  Kn,app (H-Val-NH2 as nucleophile): 5.7 ± 0.3 mM

## carboxypeptidase Y mutant 178Ser/215Ala/216Pro (enzyme)
CBZ-Gly-Leu-OH
  estimated CPD-Y activity relative to wild type transformants (fold of wild type): 0.6
CBZ-Trp-Leu-OH
  estimated CPD-Y activity relative to wild type transformants (fold of wild type): 1.9
CBZ-His-Leu-OH
  estimated CPD-Y activity relative to wild type transformants (fold of wild type): 0.9
CBZ-Pro-Leu-OH
  estimated CPD-Y activity relative to wild type transformants (fold of wild type): 2.8
CBZ-Lys-Leu-OH
  kcat/Km of hydrolysis: 36700 M⁻¹ s⁻¹
CBZ-Ser-Leu-OH
  kcat/Km of hydrolysis: 50000 M⁻¹ s⁻¹
CBZ-Phe-Leu-OH
  kcat/Km of hydrolysis: 1.83e+06 M⁻¹ s⁻¹
CBZ-Ala-Leu-OH
  kcat/Km of hydrolysis: 40000 M⁻¹ s⁻¹
CBZ-Glu-Leu-OH
  kcat/Km of hydrolysis: 8330 M⁻¹ s⁻¹

## carboxypeptidase Y mutant E65A (enzyme)
FA-Ala-Val-OH
  famax of transpeptidation (nucleophile H-Val-NH2): 0.67
FA-Ala-Phe-OH
  famax of transpeptidation (nucleophile H-Val-NH2): 0.66
FA-Ala-Leu-OH
  famax of transpeptidation (nucleophile H-Val-NH2): 0.71
FA-Ala-Ala-OH
  famax of transpeptidation (nucleophile H-Val-NH2): 0.96

## carboxypeptidase Y mutant N51Q (enzyme)
FA-Phe-Val-OH
  kcat/KM of hydrolysis: 300000 M⁻¹ s⁻¹
FA-Ala-Val-OH
  famax of transpeptidation (nucleophile H-Val-NH2): 0.91
FA-Ala-Phe-OH
  famax of transpeptidation (nucleophile H-Val-NH2): 0.77
FA-Ala-Leu-OH
  famax of transpeptidation (nucleophile H-Val-NH2): 0.8
FA-Ala-Ala-OH
  famax of transpeptidation (nucleophile H-Val-NH2): 0.98

## CC(C)[C@H](NC(=O)[C@H](Cc1ccccc1)NC(=O)C=Cc1ccco1)C(=O)O [FA-Phe-Val-OH]
[6]
  kcat: 108.3 s⁻¹
  kcat /KM: 2.33333e+06 M⁻¹ s⁻¹

## CC(C)[C@H](N)C(=O)O [H--Val--OH, H-Val-OH]
[1]; Table I, amino acid nucleophile, substrate FA-Ala-OBzl 0.2 mM, pH 7.5
  KN(app): 13 ± 1 mM
[1]; [7]
  KN(app): 13 ± 1 mM
[1]; [8]
  KN(app): 13 ± 1 mM
[1]; amino acid nucleophile, pH 7.5
  Kn,app: 13 ± 1 mM
[1]; nucleophile with substrate FA-Ala-OBzl, pH 7.5
  KN(app): 13 mM
[2]
  Kn,app: 79 ± 6 mM
[4]
  KN(app): 61 ± 3 mM
  Kn,app: 61 ± 2 mM
[5]; Table V, amino acid nucleophile, FA-Ala-OBzl as substrate
  Kn,app: 69 ± 2 mM

## CC(C)C[C@H](NC(=O)[C@H](C)NC(=O)C=Cc1ccco1)C(=O)O [FA--Ala--Leu--OH, FA-Ala-Leu-OH]
[1]; pH 7.5
  Kn,app (H-Val-NH2 as nucleophile): 1.6 ± 0.1 mM
[2]
  Kn,app (H-Val-NH2 as nucleophile): 4.1 ± 0.1 mM
[4]
  Kn,app (H-Val-NH2 as nucleophile): 2.4 ± 0.1 mM
[5]
  Kn,app (H-Val-NH2 as nucleophile): 5.2 ± 0.1 mM

## carboxypeptidase Y mutant E145A (enzyme)
FA-Ala-Val-OH
  famax of transpeptidation (nucleophile H-Val-NH2): 0.8
FA-Ala-Phe-OH
  famax of transpeptidation (nucleophile H-Val-NH2): 0.49
FA-Ala-Leu-OH
  famax of transpeptidation (nucleophile H-Val-NH2): 0.65

## C[C@H](NC(=O)[C@H](C)NC(=O)C=Cc1ccco1)C(=O)O [FA--Ala--Ala--OH, FA-Ala-Ala-OH]
[1]; pH 7.5
  Kn,app (H-Val-NH2 as nucleophile): 1.8 ± 0.1 mM
[3]
  Kn,app (H-Val-NH2 as nucleophile): 1.9 ± 0.1 mM
[4]
  Kn,app (H-Val-NH2 as nucleophile): 3.1 ± 0.1 mM
[5]
  Kn,app (H-Val-NH2 as nucleophile): 5.2 ± 0.5 mM

## C[C@H](NC(=O)C=Cc1ccco1)C(=O)N[C@@H](Cc1ccccc1)C(=O)O [FA--Ala--Phe--OH, FA-Ala-Phe-OH]
[1]; pH 7.5
  Kn,app (H-Val-NH2 as nucleophile): 1.1 ± 0.1 mM
[2]
  Kn,app (H-Val-NH2 as nucleophile): 4.1 ± 0.1 mM
[4]
  Kn,app (H-Val-NH2 as nucleophile): 3.1 ± 0.1 mM
[5]
  Kn,app (H-Val-NH2 as nucleophile): 4.7 ± 0.1 mM

## CC(C)C[C@H](N)C(=O)O [H--Leu--OH, H-Leu-OH]
[1]; [7]
  KN(app): 10 ± 0.8 mM
[1]; [8]
  KN(app): 10 ± 1 mM
[1]; amino acid nucleophile, pH 7.5
  Kn,app: 10 ± 1 mM
[2]
  Kn,app: 40 ± 2 mM
[4]
  KN(app): 42 ± 1 mM
  Kn,app: 42 ± 1 mM
